Key:
Brown Norway rats [1] = assay: Electroretinography (A and B wave amplitude) after retinal ischemia induced by elevation of the intraocular pressure; type: in vivo, rat
Method: Brown Norway rats from the scientific stock farm IFFA CREDO with a weight between 200 and 250 g were received and placed into individual cages in an air-conditioned room (temperature between 18 and 20° C.) with a light/dark cycle (12 h/12 h). During the study the animals had free access to food and water. Diazoxide was dissolved in a pure solution of dimethyl sulfoxide (DMSO). The solution obtained in this manner was diluted in sterile physiological serum to obtain a final ophthalmic solution at 0.01% active principle and 0.4% DMSO. The local administration was performed by instillation of 10 μl of the ophthalmic solution in the conjunctival cul-de-sac of the right eye 30 minutes after the end of the ischemia for the 1st group and 24 hours after the start of the reperfusion for the second group, […] After general anesthesia of the rats by intraperitoneal injection of sodium pentobarbital (60 mg/kg) the pupil was dilated by instillation of a drop of Mydriaticum®. The anterior chamber of the right eye, previously anesthetized by instillation of a drop of oxybuprocaine, was cannulated with a 30G needle connected to a reservoir containing a Hank's balanced salt solution. The retinal ischemia, lasting 40 min, was induced by elevation of the reservoir containing the saline solution to a height of 185 cm, permitting an intraocular pressure to 130 mm Hg to be produced. Ischemia was characterized by the disappearance of the blood flow in the retinal vessels, determined by direct opthalmoscopy of the ocular fundus. The rats were sacrificed after a period of reperfusion of 7 days. All the rats that developed a cataract or a hemorrhage were separated from the study. The electroretinography is performed under general anesthesia of the rats after dilation of the pupil by instillation of a drop of Mydriaticum®. The animal is previously adapted for 12 hours to darkness, then installed on its flank in a Faraday cage. The measuring electrode, constituted by a silver chloride ring (Ag/AgCl) is placed on the cornea of the right eye. The reference electrode constituted by a silver chloride needle is inserted in the ear of the animal. All these operations are performed under red light. The luminous stimuli are produced by a stroboscope placed at 25 cm from the eye in the visual axis. The flash of white light lasting 10 μs and with an intensity of 2.5·10^3 cd·s·m^−2 permits a maximal response of the retina. The recovery of the electrical signal, its amplification, transmission and display on a microcomputer are managed by a compact system. An integrated software permits the acquisition of the data as well as the determination of the amplitudes and of the latency times of the different waves of the electroretinogram (ERG). The ERG in the rat is composed of two waves; a corneo-negative wave or A wave reflecting the activity of the photoreceptors followed by a wave of positive polarity or B wave reflecting the activity of the Müller cells. The ERG's are recorded for all the groups at time t=0 before induction of ischemia, then at times 1, 2, 3 and 7 days after the start of the reperfusion. The pre-ischemic amplitudes of the A and B waves of the ERG are very variable from one group to the other, but also within one and the same group. Recovery is expressed by percentage of the initial value and the difference of effectiveness between each treatment is analyzed with the aid of the U test of Mann Whitney. The significance threshold is 0.02.

Brown Norway rats [2] = assay: Histological analysis of the cytoarchitecture of the retina after retinal ischemia; type: in vivo, rat; settings: 7 days after the end of the ischemia; treated 30 min or 24 hours after ischemia, compared to non-treated ischemia group
Method: Brown Norway rats from the scientific stock farm IFFA CREDO with a weight between 200 and 250 g were received and placed into individual cages in an air-conditioned room (temperature between 18 and 20° C.) with a light/dark cycle (12 h/12 h). During the study the animals had free access to food and water.
Diazoxide was dissolved in a pure solution of dimethyl sulfoxide (DMSO). The solution obtained in this manner was diluted in sterile physiological serum to obtain a final ophthalmic solution at 0.01% active principle and 0.4% DMSO.
The local administration was performed by instillation of 10 μl of the ophthalmic solution in the conjunctival cul-de-sac of the right eye 30 minutes after the end of the ischemia for the 1st group and 24 hours after the start of the reperfusion for the second group, then each day for 4 hours.
After general anesthesia of the rats by intraperitoneal injection of sodium pentobarbital (60 mg/kg) the pupil was dilated by instillation of a drop of Mydriaticum®. The anterior chamber of the right eye, previously anesthetized by instillation of a drop of oxybuprocaine, was cannulated with a 30G needle connected to a reservoir containing a Hank's balanced salt solution. […] Ischemia was characterized by the disappearance of the blood flow in the retinal vessels, determined by direct opthalmoscopy of the ocular fundus. […]

[3] = diazoxide 0.01% instilled 30 minutes after the start of the reperfusion and every day for 4 days, 3 days after the start of the reperfusion, ± standard deviation, n=7
[4] = diazoxide 0.01% instilled 30 minutes after the start of the reperfusion and every day for 4 days, 7 days after the end of the ischemia
[5] = diazoxide applied 24 hours after the start of the reperfusion, time 3 days
[6] = diazoxide applied 24 hours after the start of the reperfusion, time 7 days

reduction of the electrical activity of the retina (ERG profiles, FIG. 1C-1D) (Brown Norway rats [1]; 7 days after the end of the ischemia, groups treated 30 min or 24 hours after ischemia, compared to non-treated ischemia group): much less drastic
SMILES: CC1=Nc2ccc(Cl)cc2S(=O)(=O)N1 [diazoxide, 7-chloro-3-methyl-2H-1,2,4-benzothiadiazine-1,1-dioxide]
amplitude of wave A of the electroretinogram, recovery in % of the initial values (Brown Norway rats [1]; [3]): 97.01±13%
amplitude of wave B of the electroretinogram, recovery in % of the initial values (Brown Norway rats [1]; [3]): 96.36±11%
amplitude of wave A of the electroretinogram, recovery in % of the initial values (Brown Norway rats [1]; [4]): 88.10±14%
amplitude of wave B of the electroretinogram, recovery in % of the initial values (Brown Norway rats [1]; [4]): 75±14%
amplitude of wave A of the electroretinogram, recovery in % of the initial values (Brown Norway rats [1]; [5]): 84.26±10%
amplitude of wave B of the electroretinogram, recovery in % of the initial values (Brown Norway rats [1]; [5]): 88.17±14%
amplitude of wave A of the electroretinogram, recovery in % of the initial values (Brown Norway rats [1]; [6]): 87.59±16%
amplitude of wave B of the electroretinogram, recovery in % of the initial values (Brown Norway rats [1]; [6]): 70.59±16%
effect on the recovery of the retinal function (statistical analysis, Mann Whitney U test) (Brown Norway rats [1]; instilled 30 min or 24 hours after the end of the ischemia, compared to the non-treated group caused to have ischemia): highly significant effect
preservation of the layers of the ganglionic cells and the photoreceptor cells (FIGS. 3C and 3D) (Brown Norway rats [2]): better presservation
thickness of the internal plexiform and nuclear layers of the retina (FIGS. 3C and 3D) (Brown Norway rats [2]): less severe reduction

Reference: patent US8063054B2, “Method of treatment of retinal ischemia with diazoxide” (Centre National de la Recherche Scientifique-CNRS, priority 2003, dated 2011)
